Experimental data as given in ChEMBL document CHEMBL1201862, “PubChem BioAssay data set” (2004).
Blank lines part the entries; values can stand above or below the compound they belong to. Activity calls are given as the source filed them.

Experiments:
Type in all cases: functional
[1] = target: T1, High affinity choline transporter 1 (Homo sapiens, UniProt Q9GZV3); assay: CHT inhibitors, dose response, cell-based, 5-point CRC, membrane potential dye (AID 504840)
T1 sequence (Q9GZV3 whole entry): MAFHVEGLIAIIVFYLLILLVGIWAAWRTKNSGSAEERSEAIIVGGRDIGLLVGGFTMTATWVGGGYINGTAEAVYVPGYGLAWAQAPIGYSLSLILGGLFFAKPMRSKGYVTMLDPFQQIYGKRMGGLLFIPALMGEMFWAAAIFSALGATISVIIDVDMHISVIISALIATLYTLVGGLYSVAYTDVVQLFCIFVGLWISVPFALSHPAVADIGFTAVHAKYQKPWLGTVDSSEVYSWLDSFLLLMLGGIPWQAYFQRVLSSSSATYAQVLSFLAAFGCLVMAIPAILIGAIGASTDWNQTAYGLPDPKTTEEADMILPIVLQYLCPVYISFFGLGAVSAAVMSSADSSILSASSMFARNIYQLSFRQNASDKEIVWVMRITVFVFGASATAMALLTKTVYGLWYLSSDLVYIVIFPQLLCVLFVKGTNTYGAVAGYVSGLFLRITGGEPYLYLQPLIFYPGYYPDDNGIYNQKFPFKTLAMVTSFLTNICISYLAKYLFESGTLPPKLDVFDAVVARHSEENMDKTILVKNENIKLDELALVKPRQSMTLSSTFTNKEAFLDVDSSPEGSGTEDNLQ

[2] = target: T1, High affinity choline transporter 1; assay: CHT inhibitors, dose response, cell-based, 10-point CRC, membrane potential dye (AID 588401);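 further: membrane potential dye fluorescence of choline-evoked depolarization via CHT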
[3] = target: T2, Polyadenylate-binding protein 1 (Homo sapiens, UniProt P11940); assay: PABP1 MLLE–PAM2 binding inhibitor potency, dose response, biochemical, fluorescence polarization, FITC-PAM2 peptide (AID 602259); conditions: read-out: IC50_Mean
T2 sequence (P11940 whole entry): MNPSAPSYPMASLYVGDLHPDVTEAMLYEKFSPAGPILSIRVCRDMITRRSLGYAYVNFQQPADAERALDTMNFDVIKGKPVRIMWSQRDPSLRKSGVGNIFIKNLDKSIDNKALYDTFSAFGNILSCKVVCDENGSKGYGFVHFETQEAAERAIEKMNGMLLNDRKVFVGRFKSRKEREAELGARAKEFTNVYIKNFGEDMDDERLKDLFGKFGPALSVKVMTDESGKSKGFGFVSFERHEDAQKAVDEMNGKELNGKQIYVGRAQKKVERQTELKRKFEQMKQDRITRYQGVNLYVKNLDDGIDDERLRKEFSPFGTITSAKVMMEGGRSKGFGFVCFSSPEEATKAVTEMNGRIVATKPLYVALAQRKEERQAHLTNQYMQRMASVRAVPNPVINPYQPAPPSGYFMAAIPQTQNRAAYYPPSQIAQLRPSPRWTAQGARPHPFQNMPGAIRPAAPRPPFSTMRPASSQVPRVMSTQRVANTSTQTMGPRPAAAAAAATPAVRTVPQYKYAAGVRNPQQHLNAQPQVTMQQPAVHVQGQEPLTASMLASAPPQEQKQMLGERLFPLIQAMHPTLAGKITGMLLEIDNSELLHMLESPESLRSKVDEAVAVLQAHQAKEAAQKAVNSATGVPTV

[4] = target: T2, Polyadenylate-binding protein 1; assay: PABP1 MLLE–PAM2 interaction inhibitors, dose response, miRNA deadenylation inhibitor project, biochemical, fluorescence polarization, Cy5-PAM2 peptide, secondary (AID 602260); conditions: read-out: IC50_Mean
[5] = target: DNA dC->dU-editing enzyme APOBEC-3G (Homo sapiens, UniProt Q9HC16); assay: SAR analysis of small molecule inhibitors of APOBEC3G DNA Deaminase via a fluorescence-based single-stranded DNA deaminase assay - Set 2.; conditions: read-out: IC50_Mean
DNA dC->dU-editing enzyme APOBEC-3G, sequence (Q9HC16 whole entry): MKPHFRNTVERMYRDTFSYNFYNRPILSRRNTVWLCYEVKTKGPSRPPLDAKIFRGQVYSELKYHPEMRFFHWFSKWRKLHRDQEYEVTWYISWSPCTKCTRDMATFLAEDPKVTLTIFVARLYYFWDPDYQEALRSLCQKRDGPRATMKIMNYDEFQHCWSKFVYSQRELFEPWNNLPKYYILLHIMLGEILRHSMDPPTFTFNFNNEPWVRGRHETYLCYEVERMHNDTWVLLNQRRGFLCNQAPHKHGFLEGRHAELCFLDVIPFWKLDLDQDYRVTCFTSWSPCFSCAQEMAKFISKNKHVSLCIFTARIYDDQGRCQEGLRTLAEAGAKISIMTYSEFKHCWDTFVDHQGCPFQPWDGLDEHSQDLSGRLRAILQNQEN

[6] = target: DNA dC->dU-editing enzyme APOBEC-3A (Homo sapiens, UniProt P31941); assay: SAR analysis of small molecule inhibitors of APOBEC3A DNA Deaminase via a fluorescence-based single-stranded DNA deaminase assay - Set 2.; conditions: read-out: IC50_Mean
DNA dC->dU-editing enzyme APOBEC-3A, sequence (P31941 whole entry): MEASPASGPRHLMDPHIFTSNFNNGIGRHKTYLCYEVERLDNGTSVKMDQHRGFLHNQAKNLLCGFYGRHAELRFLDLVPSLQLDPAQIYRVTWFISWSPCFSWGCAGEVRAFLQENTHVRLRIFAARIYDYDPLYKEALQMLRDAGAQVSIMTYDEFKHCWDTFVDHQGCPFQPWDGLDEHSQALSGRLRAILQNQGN

[7] = target: Cyclin-dependent kinase 19 (Homo sapiens, UniProt Q9BWU1); assay: Navigating the Kinome. Panel member name: CDC2L6
Cyclin-dependent kinase 19, sequence (Q9BWU1 whole entry): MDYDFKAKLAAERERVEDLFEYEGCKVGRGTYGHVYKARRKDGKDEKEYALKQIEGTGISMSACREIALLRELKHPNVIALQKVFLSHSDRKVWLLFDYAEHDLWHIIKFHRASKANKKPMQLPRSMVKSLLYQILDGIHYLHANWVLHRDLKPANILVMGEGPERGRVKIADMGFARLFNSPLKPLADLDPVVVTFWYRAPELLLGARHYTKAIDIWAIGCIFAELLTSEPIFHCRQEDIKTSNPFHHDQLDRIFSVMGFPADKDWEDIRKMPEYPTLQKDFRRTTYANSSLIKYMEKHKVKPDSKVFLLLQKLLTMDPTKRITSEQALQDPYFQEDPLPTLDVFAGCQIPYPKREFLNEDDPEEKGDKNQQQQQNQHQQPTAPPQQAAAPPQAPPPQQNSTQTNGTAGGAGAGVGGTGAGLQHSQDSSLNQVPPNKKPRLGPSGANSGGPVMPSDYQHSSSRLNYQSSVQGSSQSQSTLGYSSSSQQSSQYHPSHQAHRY

[8] = target: ALK tyrosine kinase receptor (Homo sapiens, UniProt Q9UM73);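 further: ALK tested as one member of a kinase panel screen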
ALK tyrosine kinase receptor, sequence (Q9UM73 whole entry, canonical isoform): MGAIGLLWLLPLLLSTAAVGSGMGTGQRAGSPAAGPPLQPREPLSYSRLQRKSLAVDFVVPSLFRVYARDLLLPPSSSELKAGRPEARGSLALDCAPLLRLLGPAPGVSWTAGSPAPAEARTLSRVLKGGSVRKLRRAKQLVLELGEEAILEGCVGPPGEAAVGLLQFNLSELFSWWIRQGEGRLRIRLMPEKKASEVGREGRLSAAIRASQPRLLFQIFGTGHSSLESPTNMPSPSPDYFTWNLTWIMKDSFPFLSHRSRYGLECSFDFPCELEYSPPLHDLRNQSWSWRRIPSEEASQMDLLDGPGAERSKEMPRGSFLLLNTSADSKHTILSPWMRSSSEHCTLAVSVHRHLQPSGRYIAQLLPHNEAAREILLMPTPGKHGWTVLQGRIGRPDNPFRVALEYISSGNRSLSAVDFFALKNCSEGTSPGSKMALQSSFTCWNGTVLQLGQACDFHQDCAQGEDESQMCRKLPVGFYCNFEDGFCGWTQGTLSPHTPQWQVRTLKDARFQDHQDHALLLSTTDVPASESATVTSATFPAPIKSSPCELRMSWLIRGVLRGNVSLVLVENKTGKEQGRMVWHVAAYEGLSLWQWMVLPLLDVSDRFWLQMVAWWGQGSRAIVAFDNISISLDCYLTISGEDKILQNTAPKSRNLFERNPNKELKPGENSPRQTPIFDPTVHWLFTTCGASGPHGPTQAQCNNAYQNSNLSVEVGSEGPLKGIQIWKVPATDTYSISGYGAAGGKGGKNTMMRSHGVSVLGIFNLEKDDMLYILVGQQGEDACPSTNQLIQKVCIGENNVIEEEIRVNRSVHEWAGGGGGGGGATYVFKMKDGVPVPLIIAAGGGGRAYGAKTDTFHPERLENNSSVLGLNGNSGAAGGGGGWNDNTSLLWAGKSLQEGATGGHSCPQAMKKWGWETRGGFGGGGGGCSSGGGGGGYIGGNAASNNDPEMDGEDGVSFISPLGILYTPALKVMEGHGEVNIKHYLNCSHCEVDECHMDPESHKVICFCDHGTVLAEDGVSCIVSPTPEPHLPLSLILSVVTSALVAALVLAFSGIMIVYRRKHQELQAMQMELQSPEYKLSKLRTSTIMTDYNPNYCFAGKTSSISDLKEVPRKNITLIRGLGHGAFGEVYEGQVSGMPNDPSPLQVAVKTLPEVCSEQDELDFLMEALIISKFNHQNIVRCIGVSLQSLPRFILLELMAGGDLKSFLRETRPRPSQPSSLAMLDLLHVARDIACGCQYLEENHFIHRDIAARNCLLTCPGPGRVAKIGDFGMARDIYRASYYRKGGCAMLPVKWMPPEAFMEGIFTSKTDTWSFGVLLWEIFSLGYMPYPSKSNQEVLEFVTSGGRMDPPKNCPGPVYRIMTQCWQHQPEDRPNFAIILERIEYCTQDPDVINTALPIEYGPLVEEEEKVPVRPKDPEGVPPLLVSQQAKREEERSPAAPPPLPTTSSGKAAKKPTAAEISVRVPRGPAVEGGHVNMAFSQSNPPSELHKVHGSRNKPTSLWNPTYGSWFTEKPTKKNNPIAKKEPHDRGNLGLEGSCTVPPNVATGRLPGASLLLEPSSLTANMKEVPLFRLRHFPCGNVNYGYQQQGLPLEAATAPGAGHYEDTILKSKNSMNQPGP

[9] = target: Casein kinase I isoform alpha (Homo sapiens, UniProt P48729)
[10] = target: Dual specificity protein kinase CLK4 (Homo sapiens, UniProt Q9HAZ1)
[11] = target: Multidrug resistance protein CDR2 (Candida albicans (strain SC5314 / ATCC MYA-2876) (Yeast), UniProt P78595); assay: CaCDR2 efflux pump inhibitors in yeast, dose response, S. cerevisiae AD1-8u, singleplex, Cherry Pick1 hits (AID 588604)
Multidrug resistance protein CDR2, sequence (P78595 whole entry): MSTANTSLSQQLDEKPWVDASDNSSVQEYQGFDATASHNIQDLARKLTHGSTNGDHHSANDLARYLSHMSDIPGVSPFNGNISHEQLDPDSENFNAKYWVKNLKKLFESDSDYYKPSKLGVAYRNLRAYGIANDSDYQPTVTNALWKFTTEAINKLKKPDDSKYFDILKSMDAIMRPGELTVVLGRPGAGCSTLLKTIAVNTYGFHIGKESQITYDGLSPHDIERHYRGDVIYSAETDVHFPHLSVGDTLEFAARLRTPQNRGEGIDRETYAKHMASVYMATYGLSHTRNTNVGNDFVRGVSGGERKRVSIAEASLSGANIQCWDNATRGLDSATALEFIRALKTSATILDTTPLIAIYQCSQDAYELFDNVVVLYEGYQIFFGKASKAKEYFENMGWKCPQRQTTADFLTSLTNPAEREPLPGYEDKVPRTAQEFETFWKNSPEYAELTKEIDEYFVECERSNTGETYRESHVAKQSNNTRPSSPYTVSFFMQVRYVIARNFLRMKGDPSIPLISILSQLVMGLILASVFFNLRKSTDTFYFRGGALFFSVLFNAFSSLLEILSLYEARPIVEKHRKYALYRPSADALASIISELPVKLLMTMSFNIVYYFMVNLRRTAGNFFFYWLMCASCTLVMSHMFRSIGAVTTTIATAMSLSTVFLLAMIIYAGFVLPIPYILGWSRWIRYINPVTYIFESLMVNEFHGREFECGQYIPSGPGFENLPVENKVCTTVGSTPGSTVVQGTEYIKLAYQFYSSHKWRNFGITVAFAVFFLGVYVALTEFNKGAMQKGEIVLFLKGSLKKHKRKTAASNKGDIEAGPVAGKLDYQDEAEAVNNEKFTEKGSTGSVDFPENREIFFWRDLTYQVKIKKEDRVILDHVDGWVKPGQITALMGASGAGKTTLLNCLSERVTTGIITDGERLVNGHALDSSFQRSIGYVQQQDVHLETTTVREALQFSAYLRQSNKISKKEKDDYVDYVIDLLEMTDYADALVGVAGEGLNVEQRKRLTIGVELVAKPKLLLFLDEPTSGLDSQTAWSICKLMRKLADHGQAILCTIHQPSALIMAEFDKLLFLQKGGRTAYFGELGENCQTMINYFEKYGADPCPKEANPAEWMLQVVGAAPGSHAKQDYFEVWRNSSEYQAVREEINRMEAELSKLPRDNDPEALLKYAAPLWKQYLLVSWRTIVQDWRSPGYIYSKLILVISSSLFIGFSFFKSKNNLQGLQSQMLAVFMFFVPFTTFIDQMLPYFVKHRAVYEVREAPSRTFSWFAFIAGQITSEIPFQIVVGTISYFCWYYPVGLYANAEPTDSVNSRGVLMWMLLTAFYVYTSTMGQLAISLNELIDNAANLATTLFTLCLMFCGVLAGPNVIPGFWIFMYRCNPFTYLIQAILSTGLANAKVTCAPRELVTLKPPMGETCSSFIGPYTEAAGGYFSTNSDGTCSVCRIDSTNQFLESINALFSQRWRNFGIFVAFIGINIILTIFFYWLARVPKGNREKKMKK

Compound: S=C(NCc1ccccn1)Nc1ccc(Br)cc1Cl
IC50 [1]: 3.84 µM (active) | IC50 [2]: 1.58 µM (active) | IC50 [3]: > 66 µM (inactive) | IC50 [4]: > 66 µM (inactive)

Compound: CCc1nc2sc3c(c2c2nnc(S)n12)CCC(C)C3 (stereo unspecified)
IC50 [5]: > 99 µM (inactive) | IC50 [6]: > 99 µM (inactive)

Compound: COc1ccc(-c2nc3ccccc3c(=O)n2CCOc2ccc(C)cc2C)cc1
EC50 [11]: 15.2 µM (active)

Next, values leading:

Ki [7]: 2 µM (active) | Ki [8]: 1.58 µM (active)
Compound: Cn1cc(Nc2ncc(Cl)c(Nc3ccccc3)n2)cn1

Ki [9]: 20 µM (active) | Ki [10]: 39.8 µM (active)
Compound: Nc1nnc(-c2ccccc2)c(N)n1
